Laboratory results reported in patent publication US20120094949A1, “HISTONE MODIFICATION PATTERNS FOR CLINICAL DIAGNOSIS AND PROGNOSIS OF CANCER” (The Regents of the University of California, priority 2009, published 2012).

How the values were obtained:
[1] = test system: pancreatic adenocarcinoma; experiment: Kaplan-Meier survival analysis comparing adjuvant treatments within histone groups, RTOG 9704 TMA; type: in vivo, human; conditions: adjuvant chemotherapy; for overall or disease-free survival, gemcitabine or 5-FU: each of the high level histone subgroups
Description: METHODS: Tissue microarrays (TMAs) from two large pancreatic adenocarcinoma cohorts were examined, including a 195 patient cohort from RTOG 9704, a multi-center phase III randomized treatment trial comparing adjuvant gemcitabine versus 5-fluorouracil (5-FU), and a 140 patient cohort of Stage I or II cancer from UCLA Medical Center. Immunohistochemistry for three histone modifications (H3K4me2, H3K9me2 and H3K18ac) was performed. Positive tumor cell staining of the histone modifications was used to classify patients into low and high staining groups, which were related to clinicopathologic parameters and clinical outcome measures.
Pancreatic adenocarcinoma patients and tissue microarrays. The RTOG 9704 pancreatic cancer tissue microarray (TMA) consisted of 229 cases of pancreatic adenocarcinoma obtained from patients enrolled in RTOG 9704, a phase III randomized post-operative adjuvant treatment trial comparing 5-fluorouracil (5-FU) to gemcitabine before and after chemoradiation (Regine et al., Jama 299:1019-26 (2008)). In RTOG 9704, all patients received adjuvant chemotherapy (5-FU or gemcitabine) for durations of one month before and three months following chemoradiation therapy, which included 5-FU infusion as a radiation sensitizer. Clinicopathologic factors were collected as part of patient enrollment, as were treatment schedules and follow-up clinical information including toxicity, overall survival and disease-free survival. The UCLA Stage I/II pancreatic cancer TMA consisted of 140 cases of AJCC stage I or II pancreatic adenocarcinoma from the UCLA Department of Pathology and Laboratory Medicine archives, representing patients who underwent complete gross resection of tumor at UCLA Medical Center between 1987 and 2005. All work was performed with appropriate institutional review board approvals.
Statistical Analysis. Specific histone cut-offs were previously shown to predict survival in subsets of patients with multiple types of carcinoma, including prostate, lung and kidney (Seligson et al., Am J Pathol 174:1619-1628 (2009); Seligson et al., Nature 435:1262-6 (2005)). In order to standardize and apply these same cut-offs in both pancreatic cancer TMAs, each tumor was assigned a percent rank value (quantile) based on median percent of cells staining relative to its TMA dataset using the SAS system procedure RANK with TIES=LOW option, which assigns the smallest of the corresponding ranks for the ties data values. Each tumor was then assigned into a low or high level staining group based on its percent rank, including H3K4me2 (<60 vs. ≧60 percent rank), H3K9me2 (<30 vs. ≧30 percent rank for the RTOG TMA or <25 vs. ≧25 percent rank for the UCLA Stage I/II TMA) and H3K18ac (<35 vs. ≧35 percent rank). Survival estimates were generated and visualized using the Kaplan-Meier method and survival curves were compared using the log-rank test. Multivariate Cox proportional hazards models were used to test statistical independence and significance of multiple predictors. Overall survival time was measured from the date of randomization (RTOG 9704 TMA) or date of surgery (UCLA Stage I/II TMA) to the date of death due to any cause or last follow-up. Disease-free survival time was only determined for RTOG 9704 and was measured from the date of randomization to the date of first disease-free failure event defined as local or regional disease relapse, distant disease, second primary or death due to any cause. […]

[2] = test system: pancreatic adenocarcinoma; conditions: setting of fluorouracil-based chemoradiation; resected pancreatic cancer; cited from earlier work

Row | Compound | overall or disease-free survival, gemcitabine or 5-FU ([1]; data not shown) | survival benefit of adjuvant gemcitabine over adjuvant 5-FU [2] | overall survival, 5-FU versus gemcitabine ([1]; low H3K4me2 subgroup, data not shown) | disease-free survival, 5-FU versus gemcitabine ([1]; low H3K4me2 subgroup, log rank test p=0.014) | disease-free survival, 5-FU versus gemcitabine ([1]; low H3K18ac subgroup, log rank test p=0.015)
1 | Nc1ccn([C@@H]2O[C@H](CO)[C@@H](O)C2(F)F)c(=O)n1 [gemcitabine] | no significant differences | non-statistically significant survival benefit |  |  | 
2 | O=c1[nH]cc(F)c(=O)[nH]1 [5-FU, 5-fluorouracil] | no significant differences |  | non-significant trend towards worse overall survival | worse disease-free survival | worse disease-free survival
